Measured values: patent US20260373164A1, “4(RS)-4-F4-NEUROPROSTANE DERIVATIVES (4-F4T-NEUROP) AND THEIR USE IN TREATING VENTILATOR INDUCED DIAPHRAGMATIC DYSFUNCTION AND OTHER DISEASES” (INSTITUT NATIONAL DE LA SANTÉ ET DE LA RECHERCHE MÉDICALE, priority 2022, published 2026)
“Also recorded” adds a separate entry of the source.

Key:
[1] = test system: ventricular myocytes (type 2 ryanodine receptor); experiment: Anti-arrhythmic properties in isolated ventricular myocytes (calcium transients and cell contraction, IonOptix); format: cell-based, murine; settings: 10 nM isoproterenol; for anti-arrhythmic properties (ryanodine dependent arrhythmic cells): VB574 10 nM, 100 nM or 1 μM, compound IV 1 μM, 1 Hz stimulation
Experimental: Compounds 20,21,22-trinor-4(RS)-4-F4t-NeuroP (compound of Formula III, VB574) and monohydroxylated derivative of 4-F4t-NeuroP (Compound IV) were evaluated for their anti-arrhythmic properties. Calcium transients and cell contraction was measured by the photometric system ionOptix®.
The photometric system IonOptix® can provide real-time, simultaneous acquisition of fluorescence photometry with sarcomere length measurements. For the study of isolated myocytes, the system includes a pacemaker that offers full control of the stimulation pulse duration, the frequency and the voltage. Thus, the photometric system IonOptix® puts in correlation the calcium transients and the shortening of the electrically stimulated myocytes (1 Hz, 20 V, FIG. 7). Calcium was studied by the use of a ratiometric fluorescent calcium probe (indo-1-AM, excitation wavelength 360±10 nm, emission wavelength at 405±10 nm and 485±10 nm).
To measure the intracellular calcium, the first step was to bring ventricular myocytes load into contact with an amount of indo-1-AM. To make it liposoluble, indo-1 was esterified on its carboxylic functions to give indo-1-AM. Once present in the cell, esterases allow the release of Indo-1 carboxylic functions enabling it to bind to the intracellular calcium. The incorporation time was predetermined to 30 minutes. This time was chosen following experiments using different times of incubation and 30 minutes was the time giving a good ratio/noise ratio and no obvious perturbation of cellular calcium homeostasis. The incubation time of the probe is critical because too low load generates a weak signal while excessive exposure will excessively increase the buffering capacity of the cytoplasm for calcium.
Once loaded and the cells arranged on the measuring system by means of a tank containing Tyrode salt solution (450 μL), the probe was excited by a xenon lamp at a wavelength of 360 nm. Through an optical wavelength filter, the apparatus collects the fluorescence emitted from the Indo-1 at two different wavelengths: 405±10 nm and 485±10 nm. The first wavelength represents the fluorescence of the probe bound to calcium and the second wavelength represents the fluorescence of the free probe. The ratio of these two wavelengths reflects the concentration of intracellular calcium. It is thus possible to observe calcium transients in ventricular myocytes systole but also to observe the diastolic calcium when the stimulation is stopped.
To measure the contraction, striation of cardiac cells due to the presence of sarcomeres was used. […] The recorded signal is similar to a sine function. […]
Thus, to evaluate the potential RyR stabilizing effect of the 4-F4T-neuroprostane derivatives (compounds III and IV), the compounds were applied, and the percentage of arrhythmic cells was measured.

RyR2 = settings: previously reported (ref. 21); cited from earlier work

## CC/C=C\C/C=C\C[C@@H]1[C@H](/C=C/C(O)CCC(=O)O)[C@@H](O)C[C@H]1O (mixture of isomers) [compound III, (E)-6-((1S,2R,3R,5S)-3,5-dihydroxy-2-((2Z,5Z)-octa-2,5-dien-1-yl)cyclopentyl)-4-hydroxyhex-5-enoic Acid]
[1]
  anti-arrhythmic properties (ryanodine dependent arrhythmic cells): show anti-arrhythmic properties indicative of an interaction with the RyR

## CC/C=C\C/C=C\C/C=C\C/C=C\C/C=C\C/C=C\CCC(=O)O [DHA, docosahaenoic acid]
RyR2
  cardiac anti-arrhythmic effect, RyR2 stabilization: could exert a cardiac anti-arrhythmic effect due to a stabilization of the cardiac isoform of ryanodine receptor, RyR2

## CC/C=C\C/C=C\C/C=C\C[C@H]1CC[C@H](O)[C@H]1/C=C/C(O)CCC(=O)O (some centres unmarked) [compound IV]
[1]
  anti-arrhythmic properties (ryanodine dependent arrhythmic cells): show anti-arrhythmic properties indicative of an interaction with the RyR

## CC(C)NCC(O)c1ccc(O)c(O)c1 (centres unmarked) [isoproterenol]
[1]
  amplitude of contractions: increase in the amplitude of contractions
  extrasystole ventricular contraction (ESV): promotes the development of ESV; also recorded: promote the development of ExtraSystole Ventricular contraction (ESV)
